# Laboratory results taken from patent US20140113898A1, “BISARYLSULFONE AND DIALKYLARYLSULFONE COMPOUNDS AS CALCIUM CHANNEL BLOCKERS” (Zalicus Pharmaceuticals Ltd., priority 2010, published 2014).
# Read-outs that look alike come from different tables or passages of the source.
# How the values were obtained:
# CaV2.2 = target: T1, CaV2.2 (Homo sapiens, UniProt Q00975); test: High-throughput CaV2.2/Kir2.3 FLIPR fluorescent assay; type: cell-based; settings: Fluo-4 FLIPR, closed or inactivated state not stated
# T1 construct: expressed in transfected cells; host or cells: unnamed doxycycline-inducible cell line
# T1 sequence (Q00975 whole entry): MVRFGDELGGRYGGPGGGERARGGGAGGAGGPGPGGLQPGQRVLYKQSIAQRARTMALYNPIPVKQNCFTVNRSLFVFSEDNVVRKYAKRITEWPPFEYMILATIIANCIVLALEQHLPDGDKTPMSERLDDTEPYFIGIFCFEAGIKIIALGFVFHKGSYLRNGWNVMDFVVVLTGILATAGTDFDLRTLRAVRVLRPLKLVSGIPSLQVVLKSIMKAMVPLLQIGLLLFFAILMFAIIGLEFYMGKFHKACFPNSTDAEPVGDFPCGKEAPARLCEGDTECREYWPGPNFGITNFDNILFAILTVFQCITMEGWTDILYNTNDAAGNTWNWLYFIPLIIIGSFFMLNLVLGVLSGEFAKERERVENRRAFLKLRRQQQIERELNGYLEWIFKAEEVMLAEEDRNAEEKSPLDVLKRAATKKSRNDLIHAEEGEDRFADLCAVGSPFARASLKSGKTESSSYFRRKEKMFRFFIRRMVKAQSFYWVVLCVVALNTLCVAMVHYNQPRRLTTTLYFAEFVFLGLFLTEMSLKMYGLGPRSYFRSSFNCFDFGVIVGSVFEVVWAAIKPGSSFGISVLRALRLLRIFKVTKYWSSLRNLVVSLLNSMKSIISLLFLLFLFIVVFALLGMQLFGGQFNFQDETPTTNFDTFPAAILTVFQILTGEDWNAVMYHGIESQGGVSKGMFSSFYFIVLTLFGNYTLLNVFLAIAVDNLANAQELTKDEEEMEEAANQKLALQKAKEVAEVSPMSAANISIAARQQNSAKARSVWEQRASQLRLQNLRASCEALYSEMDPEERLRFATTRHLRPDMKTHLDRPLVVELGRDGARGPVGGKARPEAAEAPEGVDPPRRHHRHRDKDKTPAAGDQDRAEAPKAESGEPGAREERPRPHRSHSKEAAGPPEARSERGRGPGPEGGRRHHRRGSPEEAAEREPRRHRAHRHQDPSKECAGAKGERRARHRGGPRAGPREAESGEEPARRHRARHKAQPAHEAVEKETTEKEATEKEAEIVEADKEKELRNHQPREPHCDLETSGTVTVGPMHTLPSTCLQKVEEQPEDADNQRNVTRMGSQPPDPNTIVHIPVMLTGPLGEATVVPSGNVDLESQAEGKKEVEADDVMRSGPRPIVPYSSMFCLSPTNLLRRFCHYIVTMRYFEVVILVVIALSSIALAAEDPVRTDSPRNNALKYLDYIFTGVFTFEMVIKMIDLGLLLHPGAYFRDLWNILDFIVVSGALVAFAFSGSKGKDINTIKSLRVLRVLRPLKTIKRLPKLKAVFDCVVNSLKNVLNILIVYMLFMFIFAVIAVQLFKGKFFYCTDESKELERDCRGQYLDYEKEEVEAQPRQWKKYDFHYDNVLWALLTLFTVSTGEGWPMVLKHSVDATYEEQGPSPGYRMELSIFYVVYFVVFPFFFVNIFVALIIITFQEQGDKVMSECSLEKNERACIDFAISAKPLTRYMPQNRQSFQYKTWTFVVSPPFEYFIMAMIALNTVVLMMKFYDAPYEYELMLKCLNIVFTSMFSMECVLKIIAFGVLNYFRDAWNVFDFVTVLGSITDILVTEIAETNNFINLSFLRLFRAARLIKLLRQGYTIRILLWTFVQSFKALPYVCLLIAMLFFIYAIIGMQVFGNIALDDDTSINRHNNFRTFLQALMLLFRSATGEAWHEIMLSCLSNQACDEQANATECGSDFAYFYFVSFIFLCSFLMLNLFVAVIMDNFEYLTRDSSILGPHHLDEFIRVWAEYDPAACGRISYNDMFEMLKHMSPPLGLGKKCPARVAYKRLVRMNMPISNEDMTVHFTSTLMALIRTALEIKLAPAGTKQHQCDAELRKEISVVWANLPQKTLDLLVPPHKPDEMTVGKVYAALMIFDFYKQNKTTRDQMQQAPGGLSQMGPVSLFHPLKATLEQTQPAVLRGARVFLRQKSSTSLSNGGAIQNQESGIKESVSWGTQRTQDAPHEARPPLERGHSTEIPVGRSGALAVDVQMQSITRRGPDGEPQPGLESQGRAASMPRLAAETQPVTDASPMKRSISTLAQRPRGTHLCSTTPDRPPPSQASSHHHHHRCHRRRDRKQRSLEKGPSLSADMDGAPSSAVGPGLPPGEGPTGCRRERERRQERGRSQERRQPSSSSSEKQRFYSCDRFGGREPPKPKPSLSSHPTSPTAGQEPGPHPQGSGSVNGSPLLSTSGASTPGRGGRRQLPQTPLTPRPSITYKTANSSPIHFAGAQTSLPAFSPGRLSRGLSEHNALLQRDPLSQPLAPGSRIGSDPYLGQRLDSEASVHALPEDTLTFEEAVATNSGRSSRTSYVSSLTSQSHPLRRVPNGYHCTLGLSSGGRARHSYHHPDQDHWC
# T1 sequence (P54284 whole entry partner): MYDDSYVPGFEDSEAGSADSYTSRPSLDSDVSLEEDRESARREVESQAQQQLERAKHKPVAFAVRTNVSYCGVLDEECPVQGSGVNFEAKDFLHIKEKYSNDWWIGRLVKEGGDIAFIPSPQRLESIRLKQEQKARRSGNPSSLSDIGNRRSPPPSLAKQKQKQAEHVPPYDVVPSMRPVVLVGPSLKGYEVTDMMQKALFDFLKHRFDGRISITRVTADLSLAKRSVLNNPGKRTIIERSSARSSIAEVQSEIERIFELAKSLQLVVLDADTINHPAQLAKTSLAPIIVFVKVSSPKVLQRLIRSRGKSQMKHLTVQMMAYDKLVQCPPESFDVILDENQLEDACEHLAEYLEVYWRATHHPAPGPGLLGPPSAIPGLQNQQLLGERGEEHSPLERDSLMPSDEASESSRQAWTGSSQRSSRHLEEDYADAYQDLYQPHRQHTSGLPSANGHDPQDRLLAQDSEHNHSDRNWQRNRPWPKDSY
# T1 sequence (P54289 25-946 partner limits assumed): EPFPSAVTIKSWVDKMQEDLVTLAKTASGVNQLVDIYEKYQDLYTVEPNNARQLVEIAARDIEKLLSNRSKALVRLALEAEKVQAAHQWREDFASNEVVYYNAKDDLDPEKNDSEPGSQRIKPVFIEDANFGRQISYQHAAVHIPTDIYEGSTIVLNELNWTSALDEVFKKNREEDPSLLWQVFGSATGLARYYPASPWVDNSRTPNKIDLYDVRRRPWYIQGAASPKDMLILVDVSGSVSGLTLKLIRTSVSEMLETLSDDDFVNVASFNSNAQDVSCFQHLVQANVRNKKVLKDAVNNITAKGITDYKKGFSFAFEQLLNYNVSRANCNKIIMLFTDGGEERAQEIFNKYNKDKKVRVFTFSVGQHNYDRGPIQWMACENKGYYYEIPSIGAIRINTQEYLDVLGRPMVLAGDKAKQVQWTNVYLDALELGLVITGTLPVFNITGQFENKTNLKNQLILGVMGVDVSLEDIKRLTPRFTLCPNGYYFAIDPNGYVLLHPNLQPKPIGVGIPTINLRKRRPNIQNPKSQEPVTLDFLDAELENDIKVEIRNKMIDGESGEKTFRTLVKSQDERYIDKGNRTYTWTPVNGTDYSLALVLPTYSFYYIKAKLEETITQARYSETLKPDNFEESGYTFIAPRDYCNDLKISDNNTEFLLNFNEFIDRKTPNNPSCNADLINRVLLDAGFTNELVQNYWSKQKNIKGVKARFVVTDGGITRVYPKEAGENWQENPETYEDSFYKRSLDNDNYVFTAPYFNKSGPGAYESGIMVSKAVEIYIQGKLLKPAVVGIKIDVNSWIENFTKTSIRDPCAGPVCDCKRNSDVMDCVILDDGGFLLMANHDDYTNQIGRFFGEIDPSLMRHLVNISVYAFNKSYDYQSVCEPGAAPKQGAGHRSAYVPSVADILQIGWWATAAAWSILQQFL
# T1 sequence (P54289 947-1103 partner limits assumed): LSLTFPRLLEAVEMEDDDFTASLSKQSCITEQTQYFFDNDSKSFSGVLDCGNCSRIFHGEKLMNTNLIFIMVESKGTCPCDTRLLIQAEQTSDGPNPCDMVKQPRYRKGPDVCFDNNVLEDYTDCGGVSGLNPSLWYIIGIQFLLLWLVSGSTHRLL
# Summary of the method: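 IC50 was derived by logistic fitting of the FLIPR Fluo-4 signal recorded over 3 min after a 130 mM KCl stimulus. Before stimulation, cells (channel expression induced with doxycycline, 29 °C on assay day) were kept in pH 7.4 buffer with 2 mM KCl for the closed-state format or 12.5 mM KCl for the inactivated-state format.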
# CaV3.2 = target: T2, CaV3.2 (Homo sapiens, UniProt O95180); test: High-throughput CaV3.2/Kir2.3 T-type FLIPR fluorescent assay; type: cell-based; settings: Fluo-4 FLIPR, closed or inactivated state not stated
# T2 construct: expressed in transfected cells; host or cells: unnamed doxycycline-inducible cell line
# Description: Cells were plated in 384-well, clear-bottom, black-walled, poly-D-lysine coated plates (Becton Dickinson, Franklin Lake, N.J.) 2 days prior to use in the FLIPR assay. 100 µL of cells (1.2×10^6 cell/mL) containing doxycyline (Sigma-Aldrich, 1.5 μg/mL; to induce channel expression) were added to each well using a Multidrop (Thermo Scientific, Waltham, Mass.) and were maintained in 5% CO2 incubator at 37° C. On the morning of the assay, cells were transferred to a 5% CO2 incubator at 29° C.
# Cells were washed with a wash buffer containing (in mM): 118 NaCl, 18.4 HEPES, 11.7 D-glucose, 2 CaCl2, 0.5 MgSO4, 4.7 KCl, and 1.2 KH2PO4, with the pH adjusted to 7.2 with
# NaOH. 4.4 μM of the fluorescent indicator dye Fluo-4 (Invitrogen) prepared in pluronic acid (Sigma-Aldrich) was loaded into the wells and incubated for 45 minutes at 29° C. in 5% CO2. Cells were then rinsed with either a 2 mM KCl closed-state buffer (in mM: 138.5 NaCl, 10 HEPES, 10 D-glucose, 1 CaCl2, and 2 KCl, with the pH adjusted to 7.4 with NaOH) when performing the closed-state assay or 7.6 mM KCl inactivated-state buffer (in mM: 130.9 NaCl, 10 HEPES, 10 D-glucose, 1 CaCl2, and 7.6 mM KCl, with the pH adjusted to 7.4 with NaOH) when performing the inactivated-state assay. Concentration-dependent response curves were generated from 5 mM stock solutions prepared in DMSO (Sigma-Aldrich), diluted in either the 2 mM KCl buffer or 7.6 mM KCl buffer, and incubated for 20 minutes at 29° C. in 5% CO2. Calcium entry was evoked with an addition of either 12 mM KCl stimulation buffer (in mM: 128.5 NaCl, 10 HEPES, 10 D-glucose, 1 CaCl2, and 12 KCl, with the pH adjusted to 7.4 with NaOH) or 14.5 mM KCl stimulation buffer (in mM: 126 NaCl, 10 HEPES, 10 D-glucose, 1 CaCl2, and 14.5 KCl, with the pH adjusted to 7.4 with NaOH) for the closed-state or inactivated-state assay respectively. A change in the Fluo-4 fluorescence signal was assessed using FLIPR^TETRA™ instrument (Molecular Devices, Sunnyvale, Calif.) for 3 minutes following the elevation of extracellular KCl using an illumination wavelength of 470-495 nm with emissions recorded at 515-575 nm.
# Concentration-dependent response curves were obtained by comparing the fluorescence signal in the presence of compound and fitted with a logistic function (1) to obtain the concentration that inhibited 50% (IC50) of the RLU signal using OriginPro v.7.5 software (OriginLab, Northampton, Mass.).
# To assess the quality of the FLIPR assays the Z-factor (2) was used to quantify the suitability of the assay conditions using the following equation: […]
# Data are expressed as mean and standard deviation (SD).
# [1] = Table 4, read-out: FLIPR data CaV2.2
# [2] = Table 5, read-out: FLIPR data CaV2.2
SMILES,IC50 (CaV2.2; [1]) [nM],IC50 (CaV3.2; Table 4) [µM],IC50 (CaV2.2; [2]) [nM],other results
"NC1(C(=O)NCc2ccc(S(=O)(=O)c3cccc(C(F)(F)F)c3)cc2)CCC2(CC1)OCCO2 [Compound 83, 8-amino-N-(4-((3-(trifluoromethyl)phenyl)sulfonyl)benzyl)-1,4-dioxaspiro[4.5]decane-8-carboxamide]",1310,9.22,,
"NC1(CC(=O)NCc2ccc(S(=O)(=O)c3cccc(C(F)(F)F)c3)cc2)CCCCC1 [Compound 86, 2-(1-aminocyclohexyl)-N-(4-((3-(trifluoromethyl)phenyl)sulfonyl)benzyl)acetamide]",310,5.5,,
"CC(C)(C(=O)N1CCC(c2nc3ccccc3[nH]2)CC1)S(=O)(=O)c1cccc(C(F)(F)F)c1 [Compound 138, 1-(4-(1H-benzol[d]imidazol-2-yl)piperidin-1-yl)-2-methyl-2-((3-(trifluoromethyl)phenyl)sulfonyl)propan-1-one]",,,1480,IC50 (CaV3.2; Table 5): 5.1 µM
"CC(C)(C(=O)NCc1cccnc1Oc1ccc(F)cc1)S(=O)(=O)c1cccc(C(F)(F)F)c1 [Compound 146, N-((2-(4-fluorophenoxy)pyridin-3-yl)methyl)-2-methyl-2-((3-(trifluoromethyl)phenyl)sulfonyl)propanamide]",,,440,IC50 (CaV3.2; Table 5): 7.21 µM
"CC(C)Oc1cccnc1C(C)(C)NC(=O)C(C)(C)S(=O)(=O)c1cccc(C(F)(F)F)c1 [Compound 147, N-(2-(3-isopropoxypyridin-2-yl)propan-2-yl)-2-methyl-2-((3-(trifluoromethyl)phenyl)sulfonyl)propanamide]",,,1390,IC50 (CaV3.2; Table 5): 3.53 µM
"CC(C)(CNC(=O)c1ccnc(N2CCCC2)c1)S(=O)(=O)c1cccc(C(F)(F)F)c1 [Compound 161, N-(2-methyl-2-((3-(trifluoromethyl)phenyl)sulfonyl)propyl)-2-(pyrrolidin-1-yl)isonicotinamide]",,,1120,IC50 (CaV3.2; Table 5): 8.22 µM
"Cc1c(C(=O)NCCC(C)(C)S(=O)(=O)c2cccc(C(F)(F)F)c2)ncn(C(C)C)c1=O [Compound 215, 1-isopropyl-5-methyl-N-(3-methyl-3-((3-(trifluoromethyl)phenyl)sulfonyl)butyl)-6-oxo-1,6-dihydropyrimidine-4-carboxamide]",,,3160,
"CC(C)(CCNC(=O)[C@@H]1C[C@@H](F)CN1)S(=O)(=O)c1cccc(C(F)(F)F)c1 [Compound 216, (2S,4R)-4-fluoro-N-(3-methyl-3-((3-(trifluoromethyl)phenyl)sulfonyl)butyl)pyrrolidine-2-carboxamide]",,,8930,
"CC(C)(CCNC(=O)[C@@H]1C[C@@H](O)CN1)S(=O)(=O)c1cccc(C(F)(F)F)c1 [Compound 217, (2S,4R)-4-hydroxy-N-(3-methyl-3-((3-(trifluoromethyl)phenyl)sulfonyl)butyl)pyrrolidine-2-carboxamide]",,,8170,
"CC(C)(CCNC(=O)[C@@H]1CCCN1)S(=O)(=O)c1cccc(C(F)(F)F)c1 [Compound 219, (S)-N-(3-methyl-3-((3-(trifluoromethyl)phenyl)sulfonyl)butyl)pyrrolidine-2-carboxamide]",,,3230,
"CC(C)(CCNC(=O)[C@H]1CCCN1)S(=O)(=O)c1cccc(C(F)(F)F)c1 [Compound 220, (R)-N-(3-methyl-3-((3-(trifluoromethyl)phenyl)sulfonyl)butyl)pyrrolidine-2-carboxamide]",,,3430,
"CN1CCCCC1C(=O)NCCC(C)(C)S(=O)(=O)c1cccc(C(F)(F)F)c1 (centres unmarked) [Compound 221, 1-methyl-N-(3-methyl-3-((3-(trifluoromethyl)phenyl)sulfonyl)butyl)piperidine-2-carboxamide]",,,6100,
"CC1(C(=O)NCCC(C)(C)S(=O)(=O)c2cccc(C(F)(F)F)c2)CCCCN1 (centres unmarked) [Compound 222, 2-methyl-N-(3-methyl-3-((3-(trifluoromethyl)phenyl)sulfonyl)butyl)piperidine-2-carboxamide]",,,3770,
"CC(C)(CCNC(=O)CC1(N)CCCCC1)S(=O)(=O)c1cccc(C(F)(F)F)c1 [Compound 223, 2-(1-aminocyclohexyl)-N-(3-methyl-3-((3-(trifluoromethyl)phenyl)sulfonyl)butyl)acetamide]",,,360,
"CC(C)C[C@H](CN)CC(=O)NCCC(C)(C)S(=O)(=O)c1cccc(C(F)(F)F)c1 [Compound 224, (S)-3-(aminomethyl)-5-methyl-N-(3-methyl-3-((3-(trifluoromethyl)phenyl)sulfonyl)butyl)hexanamide]",,,,"IC50 (CaV2.2; FLIPR data CaV2.2 (nM), Table 5): 470 nM"

# Continued, in another order:
IC50 (CaV2.2; [1]) [nM],IC50 (CaV3.2; Table 4) [µM],IC50 (CaV2.2; [2]) [nM],SMILES,other results
1230,1.05,,"O=C(NCc1ccccc1S(=O)(=O)c1cccc(C(F)(F)F)c1)c1cn2cc(C(F)(F)F)ccc2n1 [Compound 51, 6-(trifluoromethyl)-N-(2-((3-(trifluoromethyl)phenyl)sulfonyl)benzyl)imidazo[1,2-a]pyridine-2-carboxamide]",
340,4.1,,"O=C(CCC(F)(F)F)NCc1ccc(S(=O)(=O)c2cccc(C(F)(F)F)c2)cc1 [Compound 53, 4,4,4-trifluoro-N-(4-((3-(trifluoromethyl)phenyl)sulfonyl)benzyl)butanamide]",
400,6.71,,"O=C(CCC(F)(F)F)NCc1cccc(S(=O)(=O)c2cccc(C(F)(F)F)c2)c1 [Compound 54, 4,4,4-trifluoro-N-(3-((3-(trifluoromethyl)phenyl)sulfonyl)benzyl)butanamide]",
310,2.66,,"O=C1c2ccc(C(F)(F)F)nc2CN1Cc1ccc(S(=O)(=O)c2cccc(C(F)(F)F)c2)cc1 [Compound 56, 2-(trifluoromethyl)-6-(4-((3-(trifluoromethyl)phenyl)sulfonyl)benzyl)-6,7-dihydro-5H-pyrrolo[3,4-b]pyridin-5-one]",
2680,1.48,,"O=C1c2ccc(C(F)(F)F)nc2CN1Cc1ccccc1S(=O)(=O)c1cccc(C(F)(F)F)c1 [Compound 58, 2-(trifluoromethyl)-6-(2-((3-(trifluoromethyl)phenyl)sulfonyl)benzyl)-6,7-dihydro-5H-pyrrolo[3,4-b]pyridin-5-one]",
1450,8.44,,"O=C(NCc1ccc(S(=O)(=O)c2cccc(C(F)(F)F)c2)cc1)[C@@H]1CCCCN1 [Compound 79, (S)-N-(4-((3-(trifluoromethyl)phenyl)sulfonyl)benzyl)piperidine-2-carboxamide]",
770,8.7,,"O=C(NCc1ccc(S(=O)(=O)c2cccc(C(F)(F)F)c2)cc1)[C@H]1CCCCN1 [Compound 80, (R)-N-(4-((3-(trifluoromethyl)phenyl)sulfonyl)benzyl)piperidine-2-carboxamide]",
1930,4.17,,"O=C(NCc1ccc(S(=O)(=O)c2cccc(C(F)(F)F)c2)cn1)c1cnc(C(F)(F)F)nc1 [Compound 97, 2-(trifluoromethyl)-N-((5-((3-(trifluoromethyl)phenyl)sulfonyl)pyridin-2-yl)methyl)pyrimidine-5-carboxamide]",
1490,9.16,,"O=C(NCc1ccc(S(=O)(=O)c2cccc(C(F)(F)F)c2)cn1)c1ccnc(C(F)(F)F)n1 [Compound 98, 2-(trifluoromethyl)-N-((5-((3-(trifluoromethyl)phenyl)sulfonyl)pyridin-2-yl)methyl)pyrimidine-4-carboxamide]",
,,1020,"COc1ccc(C(=O)NCC(C)(C)S(=O)(=O)c2cccc(C(F)(F)F)c2)cc1Cl [Compound 160, 3-chloro-4-methoxy-N-(2-methyl-2-((3-(trifluoromethyl)phenyl)sulfonyl)propyl)benzamide]",IC50 (CaV3.2; Table 5): 3.99 µM
